From patent US11116771B2, “G protein-coupled receptor (GPCR) modulation by imipridones” (Oncoceutics, Inc., priority 2016, dated 2021)
“Also recorded” adds a separate entry of the source. Read-outs that look alike come from different tables or passages of the source.

Tests used:
MV411 AML cells = assay: Cell viability, MV411 AML cells; assay type: cell-based
MV411 AML xenograft = MV411 AML xenograft model; assay type: in vivo, athymic nude mice; settings: oral weekly administration; ONC212 50 mg/kg, ONC201 at similar doses (FIG. 30A)
[1] = Rat non-GLP oral single dose study; assay type: in vivo; settings: in vivo; rat non-GLP oral single dose study; read-out: NOAEL
[2] = test system: DRD2 (short and long isoforms); assay: β-arrestin recruitment GPCR reporter assay, DRD2; assay type: cell-based
DRD2L = DRD2L (Homo sapiens, UniProt P14416); assay: Gaddum/Schild analysis of arrestin recruitment to DRD2L; assay type: cell-based; settings: arrestin recruitment / cAMP reporters (FIGS. 5B, 5C, 5F)
Sequence of DRD2L (P14416 whole entry): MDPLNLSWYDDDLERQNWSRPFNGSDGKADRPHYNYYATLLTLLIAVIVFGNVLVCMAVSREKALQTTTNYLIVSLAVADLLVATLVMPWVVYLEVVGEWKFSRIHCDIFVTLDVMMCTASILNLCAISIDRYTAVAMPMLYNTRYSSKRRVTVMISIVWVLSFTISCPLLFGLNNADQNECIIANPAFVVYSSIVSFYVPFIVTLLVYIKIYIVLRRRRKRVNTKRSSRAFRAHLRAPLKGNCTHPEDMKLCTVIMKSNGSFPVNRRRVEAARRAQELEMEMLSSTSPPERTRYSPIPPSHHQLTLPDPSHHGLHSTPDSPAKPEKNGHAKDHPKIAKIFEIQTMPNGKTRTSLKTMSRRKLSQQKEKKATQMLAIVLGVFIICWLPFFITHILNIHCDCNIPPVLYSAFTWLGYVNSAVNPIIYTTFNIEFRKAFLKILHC

DRD5 = DRD5 (Homo sapiens, UniProt P21918); assay: β-arrestin recruitment GPCR reporter assay, DRD5; assay type: cell-based
Sequence of DRD5 (P21918 whole entry): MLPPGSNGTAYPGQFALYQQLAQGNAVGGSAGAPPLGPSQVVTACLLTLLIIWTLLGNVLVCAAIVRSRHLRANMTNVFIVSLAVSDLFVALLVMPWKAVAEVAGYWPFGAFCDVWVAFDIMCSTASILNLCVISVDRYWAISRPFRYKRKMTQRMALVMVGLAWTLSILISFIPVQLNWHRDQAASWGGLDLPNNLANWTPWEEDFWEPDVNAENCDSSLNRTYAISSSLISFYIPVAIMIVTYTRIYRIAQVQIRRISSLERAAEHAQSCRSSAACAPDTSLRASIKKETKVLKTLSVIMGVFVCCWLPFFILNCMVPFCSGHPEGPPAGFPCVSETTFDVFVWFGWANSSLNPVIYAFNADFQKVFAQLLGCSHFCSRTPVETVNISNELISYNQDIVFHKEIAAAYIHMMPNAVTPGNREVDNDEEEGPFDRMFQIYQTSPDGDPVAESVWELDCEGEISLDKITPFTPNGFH

[3] = test system: Staphylococcus aureus ATCC 29213; assay: MIC by micro-broth dilution, S. aureus ATCC 29213; assay type: cell-based; settings: Staphylococcus aureus
[4] = test system: Staphylococcus aureus ATCC 33591; assay: MIC by micro-broth dilution, S. aureus ATCC 33591; assay type: cell-based; settings: Staphylococcus aureus
[5] = test system: Staphylococcus aureus ATCC 700699; assay: MIC by micro-broth dilution, S. aureus ATCC 700699; assay type: cell-based; settings: Staphylococcus aureus
HCT116, MDA-MB-231, U87 [6] = settings: about 1-5 mg/mL of ONC201, 72 hours
prolactin = settings: advanced solid tumors, ELISA in peripheral blood after ONC201
DRD1 = DRD1 (Homo sapiens, UniProt P21728); settings: arrestin recruitment reporter assay
Sequence of DRD1 (P21728 whole entry): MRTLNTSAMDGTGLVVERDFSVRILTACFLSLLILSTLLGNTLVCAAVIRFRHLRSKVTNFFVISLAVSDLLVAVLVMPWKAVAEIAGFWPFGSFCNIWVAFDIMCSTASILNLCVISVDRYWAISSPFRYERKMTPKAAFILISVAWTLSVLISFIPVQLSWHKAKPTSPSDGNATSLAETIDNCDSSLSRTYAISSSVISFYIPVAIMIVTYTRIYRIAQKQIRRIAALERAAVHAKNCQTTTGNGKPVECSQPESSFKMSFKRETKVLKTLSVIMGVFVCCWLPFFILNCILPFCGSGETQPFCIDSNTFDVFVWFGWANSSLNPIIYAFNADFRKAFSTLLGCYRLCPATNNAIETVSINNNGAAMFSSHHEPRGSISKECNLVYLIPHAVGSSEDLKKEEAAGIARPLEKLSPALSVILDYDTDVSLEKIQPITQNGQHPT

DRD4 = DRD4 (Homo sapiens, UniProt P21917); settings: arrestin recruitment reporter assay
Sequence of DRD4 (P21917 whole entry): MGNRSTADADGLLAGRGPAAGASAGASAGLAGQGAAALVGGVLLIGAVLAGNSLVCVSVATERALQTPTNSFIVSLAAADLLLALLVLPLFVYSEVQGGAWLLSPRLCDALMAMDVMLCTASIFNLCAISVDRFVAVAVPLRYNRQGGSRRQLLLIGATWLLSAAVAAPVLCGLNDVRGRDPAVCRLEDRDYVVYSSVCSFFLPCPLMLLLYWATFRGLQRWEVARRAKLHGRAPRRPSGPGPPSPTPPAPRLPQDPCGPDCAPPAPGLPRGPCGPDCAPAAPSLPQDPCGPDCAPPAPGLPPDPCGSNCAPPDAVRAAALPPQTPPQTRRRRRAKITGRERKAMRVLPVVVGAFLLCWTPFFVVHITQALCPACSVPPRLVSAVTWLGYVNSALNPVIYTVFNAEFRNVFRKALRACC

kinome = settings: in vitro kinase enzymatic activity, ONC201 1 μM (FIG. 5E)
[7] = test system: nuclear hormone receptors; settings: ONC201 2 or 20 μM (FIG. 5D)
human DRD2 [8] = target: T1, human DRD2 (Homo sapiens, UniProt P14416)
T1 sequence (P14416 whole entry): as the sequence (P14416 whole entry) above

control GPCR = settings: 100 μM ONC201
[9] = target: DRD2 alanine-scan mutation library (Homo sapiens, UniProt P14416, A177S)
Sequence of DRD2 alanine-scan mutation library (Homo sapiens, UniProt P14416, A177S) (P14416 whole entry A177S): as the sequence (P14416 whole entry) above, with A177S counted along it

[10] = target: DRD2 alanine-scan mutation library (Homo sapiens, UniProt P14416, E95A)
Sequence of DRD2 alanine-scan mutation library (Homo sapiens, UniProt P14416, E95A) (P14416 whole entry E95A): as the sequence (P14416 whole entry) above, with E95A counted along it

[11] = target: DRD2 alanine-scan mutation library (Homo sapiens, UniProt P14416, I397A)
Sequence of DRD2 alanine-scan mutation library (Homo sapiens, UniProt P14416, I397A) (P14416 whole entry I397A): as the sequence (P14416 whole entry) above, with I397A counted along it

[12] = target: DRD2 alanine-scan mutation library (Homo sapiens, UniProt P14416, L81A)
Sequence of DRD2 alanine-scan mutation library (Homo sapiens, UniProt P14416, L81A) (P14416 whole entry L81A): as the sequence (P14416 whole entry) above, with L81A counted along it

[13] = target: DRD2 alanine-scan mutation library (Homo sapiens, UniProt P14416, T165A)
Sequence of DRD2 alanine-scan mutation library (Homo sapiens, UniProt P14416, T165A) (P14416 whole entry T165A): as the sequence (P14416 whole entry) above, with T165A counted along it

[14] = target: DRD2 alanine-scan mutation library (Homo sapiens, UniProt P14416, V196A)
Sequence of DRD2 alanine-scan mutation library (Homo sapiens, UniProt P14416, V196A) (P14416 whole entry V196A): as the sequence (P14416 whole entry) above, with V196A counted along it

[15] = target: DRD2 alanine-scan mutation library (Homo sapiens, UniProt P14416, V91A)
Sequence of DRD2 alanine-scan mutation library (Homo sapiens, UniProt P14416, V91A) (P14416 whole entry V91A): as the sequence (P14416 whole entry) above, with V91A counted along it

[16] = target: DRD2 alanine-scan mutation library (Homo sapiens, UniProt P14416, Y192A)
Sequence of DRD2 alanine-scan mutation library (Homo sapiens, UniProt P14416, Y192A) (P14416 whole entry Y192A): as the sequence (P14416 whole entry) above, with Y192A counted along it

HCT116, MDA-MB-231, U87 [17] = assay: cells; settings: Homo sapiens, 72 h, read-out: viability of tumor cells
in vitro = settings: human, Cell viability of normal cells, about 1-5 mg/mL of ONC201, 72 hours
human DRD2 [18] = target: T1, human DRD2; assay: cell-based; settings: HEK-293T, read-out: inhibition of the DRD2 dopamine response

## Cc1ccccc1CN1C(=O)C2=C(CCN(Cc3ccccc3)C2)N2CCN=C12 [ONC201, 7-benzyl-4-(2-methylbenzyl)-1,2,6,7,8,9-hexahydroimidazo [1,2-a]pyrido [3,4-e]pyrimidin-5(1H)-one]
MV411 AML cells
  exposure required for efficacy: 24 to 48 h
MV411 AML xenograft
  leukemia xenograft tumor growth: not efficacious
[1]
  NOAEL: 225 mg/kg
[2]
  GPCR activity, DRD2: selectively antagonizes; also recorded: antagonized
DRD2L
  antagonism of DRD2L: direct, competitive antagonism
DRD5
  GPCR activity, DRD5: no antagonism
[3]; ATCC29213
  MIC: > 100 µg/mL
[3]; ATCC29213, 24 h
  MIC99: > 100 µg/mL
[3]; ATCC29213, 24 h, read-out: MIC95
  MIC: > 100 µg/mL
[3]; ATCC29213, 24 h, read-out: MIC, Visual
  MIC: > 100 µg/mL
[4]; ATCC33591
  MIC: > 100 µg/mL
[4]; ATCC33591, 24 h
  MIC99: > 100 µg/mL
[4]; ATCC33591, 24 h, read-out: MIC95
  MIC: > 100 µg/mL
[4]; ATCC33591, 24 h, read-out: MIC, Visual
  MIC: > 100 µg/mL
[5]; ATCC700699
  MIC: > 100 µg/mL
[5]; ATCC700699, 48 h
  MIC99: > 100 µg/mL
[5]; ATCC700699, 48 h, read-out: MIC95
  MIC: > 100 µg/mL
[5]; ATCC700699, 48 h, read-out: MIC, Visual
  MIC: > 100 µg/mL
HCT116, MDA-MB-231, U87 [6]
  viability of tumor cells: ≤ 50%
prolactin
  patients exhibiting induction of prolactin: 10/11
DRD1
  GPCR activity, DRD1: no antagonism
DRD4
  GPCR activity, DRD4: weaker potency
kinome
  interaction with the kinome: no significant interactions
[7]
  interaction with nuclear hormone receptors: no significant interactions
Human DRD2 [8]
  inhibition of DRD2 dopamine-induced calcium flux: completely inhibited; also recorded: complete inhibition
Control GPCR
  effect on calcium flux of control GPCR: no effect
[9]
  Calcium Flux as a % of flux with WT DRD2 (100), ONC201 100 μM: 77%
  Calcium Flux as a % of flux with WT DRD2 (100), ONC201 250 μM: 26%
[10]
  Calcium Flux as a % of flux with WT DRD2 (100), ONC201 100 μM: 97%
  Calcium Flux as a % of flux with WT DRD2 (100), ONC201 250 μM: 39%
[11]
  Calcium Flux as a % of flux with WT DRD2 (100), ONC201 100 μM: 122%
  Calcium Flux as a % of flux with WT DRD2 (100), ONC201 250 μM: 89%
[12]
  Calcium Flux as a % of flux with WT DRD2 (100), ONC201 100 μM: 63%
  Calcium Flux as a % of flux with WT DRD2 (100), ONC201 250 μM: 20%
[13]
  Calcium Flux as a % of flux with WT DRD2 (100), ONC201 100 μM: 67%
  Calcium Flux as a % of flux with WT DRD2 (100), ONC201 250 μM: 28%
[14]
  Calcium Flux as a % of flux with WT DRD2 (100), ONC201 100 μM: 79%
  Calcium Flux as a % of flux with WT DRD2 (100), ONC201 250 μM: 22%
[15]
  Calcium Flux as a % of flux with WT DRD2 (100), ONC201 100 μM: 94%
  Calcium Flux as a % of flux with WT DRD2 (100), ONC201 250 μM: 58%
[16]
  Calcium Flux as a % of flux with WT DRD2 (100), ONC201 100 μM: 85%
  Calcium Flux as a % of flux with WT DRD2 (100), ONC201 250 μM: 11%
HCT116, MDA-MB-231, U87 [17]
  viability at 5000 µg/mL: < 25%
In vitro
  viability at 72 h: ≥ 75%
Human DRD2 [18]
  inhibition at 100 µM: > 95%
